Values joined by “and” are separate entries in the source; they are usually repeats but may differ in a detail not shown here. Identical values can stand only once.
Legend:
[1] = system: Huh7 cells; test: Cytotoxicity in Huh7 cells, ATPLite kit; format: cell-based, human
Experimental: The cytotoxicity of tested compositions comprising the prodrugs was evaluated concurrently in the same cell line Huh7 using an ATPLite kit (Perkin-Elmer, Boston, USA) in accordance with the manufacturer's instruction. The cell suspension in complete culture medium (DMEM 1×, Cellgro; cat. #10-013-CV) was transferred into 96-well plates with black walls and transparent bottoms (50 μl/well) with a final density of 7500 cells per well. Eighteen hours after planting the cells, serial drug dilutions (50 μl/well) were added. The plate with cells was incubated for 4 days at 37° C. in a humidified 5% CO2 atmosphere. The cells were then twice washed with PBS (200 μl/well) and lysed by adding a lytic buffer (50 μl/well); all reagents were taken from the ATPLite kit. Following a 5-minute stirring on a shaker, a substrate was added (50 μl/well). After an additional 5-minute incubation, the plate was kept for 10 minutes in the dark, and luminescence in the wells was measured using the multifunctional reader Victor^3 V 1420 (Perkin Elmer). The values of CC50 for tested prodrugs were measured from a cytotoxicity curve plotted using the GraphPad Prizm software.

[2] = Stability in human liver S9 fraction; format: in vitro ADME
Experimental: Proteins were deposited on ice for 15 min. The samples were then centrifuged for 10 min at 3000 rpm, and the supernatant (150 μl) was sampled for analysis.
Tolbutamide (Fluka) was used as the internal standard.

[3] = from Sofia et al. J. Med. Chem. 2010; cited from earlier work

| Structure (SMILES) | CC90 ([1]; Huh7, 10% FBS) [µM] | CC50 ([1]; Huh7, ATPLite, 4 days) [µM] | metabolic rate in human liver microsomal S9 fraction, times faster than cyclohexyl ester of formula A1 ([2]; ratio of T1/2 vs A1) [times] | metabolic rate in human liver microsomal S9 fraction, times faster than Sovaldi ([2]; ratio of T1/2 vs Sovaldi) [times] | T1/2 human S9 [3] |
| --- | --- | --- | --- | --- | --- |
| C[C@H](N[P@](=O)(OC[C@H]1O[C@@H](n2ccc(=O)[nH]c2=O)[C@](C)(F)[C@@H]1O)Oc1ccccc1)C(=O)OC1CCC1 [Prodrug 1.1, cyclobutyl (S)-2-{(S)-[(2R,3R,4R,5R)-5-(3,4-dihydro-2,4-dioxo-2H-pyrimidin-1-yl)-3-hydroxy-4-methyl-4-fluoro-tetrahydrofuran-2-ylmethoxy]-phenoxy-phosphorylamino}-propanoate] | > 100 | > 100 | 28 | 11 | – |
| CC(C)OC(=O)[C@H](C)N[P@](=O)(OC[C@H]1O[C@@H](n2ccc(=O)[nH]c2=O)[C@](C)(F)[C@@H]1O)Oc1ccccc1 [Sovaldi®, Sofosbuvir] | – | – | – | – | 34.2 min and 32.4 min |

Reference: patent publication US10683315B2, “Prodrug of an HCV NS5B polymerase inhibitor and method of production and application thereof” (priority 2017, dated 2020)
